In patent US20110171230A1, “Method of Identifying Agents that Promote Axonal Development” (The Johns Hopkins University, priority 2008, published 2011):

Key:
[1] = tested on: growth cones of Xenopus spinal neurons; test: Ca2+ imaging of growth cones of cultured spinal neurons (netrin-1-induced Ca2+ rise); format: cell-based
Procedure: Ca^2+ imaging of cultured spinal neurons. Ca^2+ imaging of growth cones of Xenopus spinal neurons was carried out as previously described (Ming et al., Nature 417:411-8, 2002; and Ming et al., Neuron 19:1225-35, 1997). Specifically, isolated Xenopus spinal neurons were loaded with Fluo-4 AM (2 μM, Molecular Probes) in the culture media without serum for 30 min at room temperature, and rinsed with the media for growth cone turning assay. Ca^2+ imaging was performed using a Zeiss 510 META system equipped with a 20× objective (NA 0.8). Excitation was at 488 nm by argon laser and the emitted fluorescence was collected at […]. Fluorescence and bright-field images were simultaneously acquired at every 30 seconds with a frame scan. The fluorescence intensity of each time point was measured over a fixed rectangular region of interest that covers the entire growth cone and normalized to the average fluorescence intensity that was measured during a 5 min baseline period (prior to netrin-1 application).

[2] = tested on: commissural interneuron axons in developing Xenopus embryos; test: Commissural interneuron axon midline guidance in developing spinal cord (3A10 immunostaining); format: in vivo
Procedure: Xenopus embryo injection and cell culture. Blastomere injections of morpholino oligos or mRNAs encoding TRPC1, FKBP52 or their mutant forms into early stages of Xenopus embryos and culturing of spinal neurons from these injected embryos were performed as previously described (Shim et al., Nat Neurosci 8:730-5, 2005). Specifically, fertilized embryos were injected at the one- or two-cell stage, with a mixture of the morpholino (10 ng/embryo) or mRNA (2-3 ng/embryo), and a lineage tracer. The following DNA constructs were subcloned into the pCS2 vector and used for in vitro transcription with the mMESSAGE mMACHINE SP6 kit (Ambion): Myc-FKBP52-WT, Myc-FKBP52-FD67DV, HA-TRPC1-WT, HA-TRPC1-P645L, HA-TRPC1-P645A, GFP-XTRP C1. A morpholino oligo directed against Xenopus DCC (XDCC-MO) was designed with the following sequence: 5′ […] 3′. Injected embryos at stage 22 were used for cultures of spinal neurons as previous described (Shim et al., Nat Neurosci 8:730-5, 2005).
Whole-mount immunocytochemistry and confocal imaging. Embryos at stage 23-28 were fixed and processed for immunocytochemistry as previously described (Shim et al., Nat Neurosci 8:730-5, 2005; and Gomez et al., Nature 397:350-5, 1999). […] Statistical significance was assessed using the Bootstrap test and accepted if p <0.01.

[3] = tested on: growth cones of Xenopus spinal neurons; test: Growth cone turning assay in a netrin-1 gradient; format: cell-based; details: for growth cone turning response in a GPI-1046 gradient: GPI-1046 100 μM in the pipette
Procedure: Growth cone turning assay. Microscopic gradients of netrin-1 (5 μg/ml in the pipette), MAG (150 μg/ml in the pipette) and GPI-1046 (100 μM in the pipette) were produced as previously described (Lohof et al., J Neurosci 12:1253-61, 1992; and Zheng et al., Nature 368:140-4, 1994). […] Xenopus spinal neurons were used 14 to 20 hrs after plating and neurons with the lineage-tracer were identified under fluorescent microscope and used for turning assay at room temperature as previously described (Ming et al., Nature 417:411-8, 2002; Ming et al., Neuron 19:1225-35, 1997; Lohof et al., J Neurosci 12:1253-61, 1992; and Zheng et al., Nature 368:140-4, 1994). GFP^+ hippocampal neurons were used 48-72 hours after plating and individual axon was identified for turning assay at the room temperature. The turning angle was defined by the angle between the original direction of neurite extension and a straight line connecting the positions of the center of the growth cone at the onset and the end of the 30 min period. The rates of neurite extension were calculated based on the net neurite extension during the turning assay. Only those growth cones of isolated neurons with a net neurite extension >5 μm over the 30-min period were included for analysis. Statistical significance was assessed using the Kolmogorov-Smirnov test.

[4] = tested on: TRPC1 binding to GST-Homer; test: GST-Homer pull-down of TRPC1 from lysates of treated HEK293 cells; format: cell-based, human; details: HEK293 cells transfected with HA-TRPC1 and FKBP52, GPI-1046 1 nM, 100 nM, 500 nM, 1 μM for 30 min
Procedure: GST pull-down, Co-IP and immunocytochemistry. Protein binding assays were done as previously described (Yuan et al., Cell 114:777-89, 2003). Transfected cells were harvested and lysed using 500 μl of binding buffer (1×PBS buffer containing 1 mM NaVO3, 10 mM NaPyrophosphate, 50 mM NaF [pH 7.4], and 1% Triton X-100). The cell extracts were sonicated, and insoluble material was spun down at 30,000 g for 20 min. For GST pull-down, GST-H3 EVH was expressed in BL21 bacterial cells by growing a 400 ml culture at 37 C until […] was 0.4-0.6. Cells were induced with […] IPTG for an additional hour, harvested, lysed in […] of 1% Triton X-100 in 1×PBS+[…] PMSF, sonicated 3×10 strokes, and spun down at 12,000 g for 5 min. The supernatant was mixed 1:1 with a slurry of GST-agarose beads (Sigma) for 30 min at 4 C. Beads were washed 2 times with 1% Triton X-100 in 1×PBS and 2 times with 1×PBS. 50 μl of 1:1 slurry of GST-H3 EVH beads were used per 100 μl cell extract and rocked for 2 hr at 4° C. For co-IP experiments, 1 μg of purified antibody or 2 μl of crude antiserum was added to 100 μl of cell extract and incubated for 1 hr at 4° C. Then, 1:1 slurry of protein A or G SEPHAROSE 4B beads were added to the antibody-extract mix and incubated for an additional hour at 4° C. […]

[5] = tested on: axonal growth cones of rat hippocampal neurons; test: Growth cone turning assay in a MAG gradient; format: cell-based; details: MAG 150 μg/ml in the pipette
Procedure: Primary hippocampal neuronal cultures and transfection. Hippocampal neurons were isolated from postnatal rats (P3-P5) and were cultured on poly-L-lysine coated coverslips as previously described (Song et al., Nature 417:39-44, 2002). These neurons were transfected with the AMAXA transfection system following protocols from the manufacturer. Briefly, hippocampal neurons were isolated and 100 μl of nucleofector solution was added to resuspend the cell pellet. Different expression constructs (1-5 μg), GFP, FKBP52-FD67DV, TRPC1-P645A or a combination of TRPC1-P645A and FKBP52-WT, were added to the cell suspension and then transferred to cuvettes for electroporation. The cells were cultured in DMEM with 10% fetal bovine serum for 24 hrs before changing to serum-free neurobasal medium (Song et al., Nature 417:39-44, 2002). Growth cone turning assay. Microscopic gradients of netrin-1 (5 μg/ml in the pipette), MAG (150 μg/ml in the pipette) and GPI-1046 (100 μM in the pipette) were produced as previously described (Lohof et al., J Neurosci 12:1253-61, 1992; and Zheng et al., Nature 368:140-4, 1994). […] The rates of neurite extension were calculated based on the net neurite extension during the turning assay. […] Statistical significance was assessed using the Kolmogorov-Smirnov test.

FKBPs = details: Steiner et al., PNAS 94:2019-24, 1997; cited from earlier work
calcineurin = details: Steiner et al., PNAS 94:2019-24, 1997; cited from earlier work

XDCC-MO: morpholino oligo directed against Xenopus DCC, 5′ CCAAGACAATTCTCCATATTTCAGC 3′ (all phosphorodiamidate morpholino (PMO))
netrin-1-induced Ca2+ rise in growth cones ([1]; neurons from embryos injected with morpholino (10 ng/embryo)): abolished netrin-1-induced Ca^2+ rise | commissural interneuron axon midline guidance ([2]; morpholino injected at the one-cell stage, stage 25 embryos): failed to reach the midline

CCC(C)(C)C(=O)C(=O)N1CCC[C@H]1C(=O)OCCCc1cccnc1 [GPI-1046, 3-(3-pyridyl)-1-propyl (2S)-1-(3,3-dimethyl-1,2-dioxopentyl)-2-pyrrolidinecarboxylate]
growth cone turning response in a GPI-1046 gradient ([3]; uniform netrin-1 10 ng/ml in the bath): significant repulsive turning responses | growth cone turning response in a GPI-1046 gradient ([3]; without uniform netrin-1 stimulation): no bias in the direction of growth cone extension | growth cone turning response in a netrin-1 gradient ([3]; netrin-1 5 μg/ml in the pipette, bath application of 100 nM, 30 min): blocked netrin-1-induced attraction | netrin-1-induced Ca2+ rise in growth cones ([1]; Xenopus spinal neurons, Fluo-4, netrin-1 5 ng/ml, GPI-1046 100 nM in bath): abolished netrin-1-induced Ca^2+ rise | TRPC1 binding to GST-Homer [4]: increased TRPC1 binding to GST-Homer | MAG-induced growth cone repulsion [5]: abolished MAG-induced repulsion | inhibition of FKBP isomerase activity (FKBPs): inhibits their isomerase activity | commissural interneuron axon midline guidance ([2]; 0.5 μM applied to Xenopus embryos between stage 22-25): significant guidance defects | inhibition of calcineurin (calcineurin): does not inhibit calcineurin
